IC50 data for nine molecules are collected here from patent EP4562004B1, “NOVEL 7-SUBSTITUTED INDOLE SULFONAMIDE DERIVATIVES” (F. Hoffmann-La Roche AG, priority 2022, dated 2024).

Sequence of human GPR17 short isoform (Q13304 29-367): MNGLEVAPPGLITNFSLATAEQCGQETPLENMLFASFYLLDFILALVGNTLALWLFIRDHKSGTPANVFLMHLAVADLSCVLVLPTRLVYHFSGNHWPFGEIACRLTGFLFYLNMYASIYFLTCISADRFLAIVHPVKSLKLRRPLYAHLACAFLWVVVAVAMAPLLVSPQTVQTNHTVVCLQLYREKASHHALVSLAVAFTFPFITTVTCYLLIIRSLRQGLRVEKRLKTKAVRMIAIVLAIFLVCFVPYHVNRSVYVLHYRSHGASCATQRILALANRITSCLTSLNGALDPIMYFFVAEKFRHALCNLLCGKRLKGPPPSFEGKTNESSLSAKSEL

The assay has as its target human GPR17 short isoform (Homo sapiens, UniProt Q13304). Description: GPR17 cAMP assay (antagonist mode, TR-FRET cAMP detection). It is filed as cell-based. Conditions: CHO-K1 cells stably expressing human GPR17 short isoform; with EC80 concentration of agonist MDL29,951, IBMX 0.5mM, forskolin 15µM; normalized to reference antagonist; read-out: hGPR17 cAMP IC50. The method in brief: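 CHO-K1 cells stably expressing untagged human GPR17 short isoform, preincubated with compounds in HBSS/HEPES/0.1% BSA pH 7.4 plus EC80 MDL29,951 and 0.5 mM IBMX; forskolin (15 µM final) added after 5 min, then 30 min at room temperature. cAMP read by TR-FRET after 90 min lysis; normalized to reference antagonist maximum, sigmoidal fit.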
Background: Cyclic AMP is a second messenger, typically raised through Gs and lowered through Gi signalling.
A word on the IC50: it is the concentration that inhibits the measured activity by half. As to `COc1nc(NS(=O)(=O)c2c[nH]c3c(-n4nccn4)c(Cl)ccc23)ncc1CC(F)F` [Example 78, 6-chloro-N-[5-(2,2-difluoroethyl)-4-methoxy-pyrimidin-2-yl]-7-(triazol-2-yl)-1H-indole-3-sulfonamide], the IC50 was determined as 55 nM.

As for `[2H]C([2H])(c1cnc(NS(=O)(=O)c2c[nH]c3c(-n4nccn4)c(Cl)ccc23)nc1OC)C(F)F` [Example 79, 6-chloro-N-[5-(1,1-dideuterio-2,2-difluoroethyl)-4-methoxy-pyrimidin-2-yl]-7-(triazol-2-yl)-1H-indole-3-sulfonamide], the IC50 came to 36 nM. The result for `COc1nc(NS(=O)(=O)c2c[nH]c3c(-n4cccn4)c(C)ccc23)nc(OC)c1CC(F)F` [Example 80, N-[5-(2,2-difluoroethyl)-4,6-dimethoxy-pyrimidin-2-yl]-6-methyl-7-pyrazol-1-yl-1H-indole-3-sulfonamide] reads 29 nM.

As to `COc1nc(NS(=O)(=O)c2c[nH]c3c(-n4cccn4)c(Br)ccc23)nc(OC)c1CC(F)F` [Example 81, 6-bromo-N-[5-(2,2-difluoroethyl)-4,6-dimethoxy-pyrimidin-2-yl]-7-pyrazol-1-yl-1H-indole-3-sulfonamide], the IC50 worked out at 18 nM. As to `COc1nc(NS(=O)(=O)c2c[nH]c3c(-n4cccn4)c(C)ccc23)nc(OC)c1OCCF` [Example 82, N-[5-(2-fluoroethoxy)-4,6-dimethoxy-pyrimidin-2-yl]-6-methyl-7-pyrazol-1-yl-1H-indole-3-sulfonamide], the IC50 worked out at 68 nM. With `COc1nc(NS(=O)(=O)c2c[nH]c3c(-n4cccn4)c(Br)ccc23)nc(OC)c1OCCF` [Example 83, 6-bromo-N-[5-(2-fluoroethoxy)-4,6-dimethoxy-pyrimidin-2-yl]-7-pyrazol-1-yl-1H-indole-3-sulfonamide], the IC50 turned out to be 36 nM. Take `[2H]C([2H])(F)C([2H])([2H])Oc1c(OC)nc(NS(=O)(=O)c2c[nH]c3c(-n4cccn4)c(Br)ccc23)nc1OC` [Example 84, 6-bromo-N-[4,6-dimethoxy-5-(1,1,2,2-tetradeuterio-2-fluoro-ethoxy)pyrimidin-2-yl]-7-pyrazol-1-yl-1H-indole-3-sulfonamide]: the concentration for half-maximal inhibition (IC50) is 26 nM.

With `[2H]C([2H])(F)C([2H])([2H])Oc1c(OC)nc(NS(=O)(=O)c2c[nH]c3c(-n4nccn4)c(Cl)ccc23)nc1OC` [Example 85, 6-chloro-N-[4,6-dimethoxy-5-(1,1,2,2-tetradeuterio-2-fluoro-ethoxy)pyrimidin-2-yl]-7-(triazol-2-yl)-1H-indole-3-sulfonamide], the IC50 was 42 nM.

On to `[2H]C([2H])(c1c(OC)nc(NS(=O)(=O)c2c[nH]c3c(-n4cccn4)c(Cl)ccc23)nc1OC)C(F)F` [Example 86, 6-chloro-N-[5-(1,1-dideuterio-2,2-difluoroethyl)-4,6-dimethoxy-pyrimidin-2-yl]-7-pyrazol-1-yl-1H-indole-3-sulfonamide], for which the 50% inhibitory concentration (IC50) was determined as 44 nM.
